Read-outs that look alike come from different tables or passages of the source.
Key:
[1] = biological target: T1, apoA-I[L178P] (Homo sapiens, UniProt P02647, L202P); test: ITC (also Tm shift by CD thermal denaturation, EC50 […]; TSA; ANS); assay type: binding
T1 construct: gene APOA1; recombinant lipid-free apoA-I (243 residues) expressed in E. coli, thioredoxin/His tag removed with 3C protease

[2] = biological target: T1, apoA-I[L178P]; test: as above; assay type: binding; remark: listed apart in the source

T1 sequence (P02647 25-267 L202P): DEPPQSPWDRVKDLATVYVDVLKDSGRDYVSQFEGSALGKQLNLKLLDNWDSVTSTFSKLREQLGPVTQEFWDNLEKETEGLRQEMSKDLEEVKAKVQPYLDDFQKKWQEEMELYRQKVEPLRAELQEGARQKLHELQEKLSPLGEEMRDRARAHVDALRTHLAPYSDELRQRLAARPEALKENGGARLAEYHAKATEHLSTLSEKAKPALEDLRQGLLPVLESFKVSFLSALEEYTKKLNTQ

## CC(C)c1c(C(=O)Nc2ccccc2)c(-c2ccccc2)c(-c2ccc(F)cc2)n1CC[C@@H](O)C[C@@H](O)CC(=O)O [C8, atorvastatin]
[1]
  EC50: 400 µM

## C=C(c1ccc(C(=O)O)cc1)c1cc2c(cc1C)C(C)(C)CCC2(C)C [C9-p1, bexarotene]
[2]
  EC50: 98 µM
